Drawing on ChEMBL document CHEMBL1129149, “Synthesis and biological evaluation of 4-alkoxysubstituted trinems. Part II” (1996), this text covers MIC for eight molecules.

Molecules are shown by their SMILES. Values after ≈ are worked out from the molar mass of the structure shown. A value given as a limit tells only on which side of the number the result lay.

One experiment deals with Escherichia coli. Put plainly: In vitro antibacterial activity against Escherichia coli 1850E strain and compared to imipenem. Format: functional.
As a reminder, the MIC is the lowest concentration that inhibits growth of the organism. Low readings indicate inhibition by little substance, high ones a need for much substance. The molecule `C[C@@H](O)[C@H]1C(=O)N2C(C(=O)[O-])=C3[C@@H](OCCCO)CCC[C@@H]3[C@H]12.[Na+]` displayed an MIC of 2 µg/mL.
`C[C@@H](O)[C@H]1C(=O)N2C(C(=O)[O-])=C3[C@@H](OCCCN)CCC[C@@H]3[C@H]12.[Na+]` yielded an MIC of 0.5 µg/mL.
The same measure, in the same setting: in the case of `C[C@@H](O)[C@H]1C(=O)N2C(C(=O)[O-])=C3[C@@H](OCCN=[N+]=[N-])CCC[C@@H]3[C@H]12.[Na+]` it was 8 µg/mL.
Same read-out and setting: in the case of `C[C@@H](O)[C@H]1C(=O)N2C(C(=O)[O-])=C3[C@@H](OCC/N=C/N)CCC[C@@H]3[C@H]12.[Na+]` it was 1 µg/mL; in that of `C[C@@H](O)[C@H]1C(=O)N2C(C(=O)[O-])=C3[C@@H](OCCCN=[N+]=[N-])CCC[C@@H]3[C@H]12.[Na+]`, 8 µg/mL.
In the case of `C/C(N)=N\CCO[C@H]1CCC[C@H]2C1=C(C(=O)[O-])N1C(=O)[C@H]([C@@H](C)O)[C@@H]21.[Na+]`, the MIC was determined as 1 µg/mL.
The same measure, in the same setting: the result for `C[C@@H](O)[C@H]1C(=O)N2C(C(=O)[O-])=C3[C@@H](OCCN)CCC[C@@H]3[C@H]12.[Na+]` reads 0.5 µg/mL; that for `C[C@@H](O)[C@H]1C(=O)N2C(C(=O)O)=C(SCCNC=N)C[C@H]12` [IMIPENEM ANHYDROUS], 0.5 µg/mL (≈ 1.67 µM).

A further experiment deals with Escherichia coli. The experiment in a line: In vitro antibacterial activity against Escherichia coli 1919E beta-lactamase producing strain and compared to imipenem. The class given is functional.
`C[C@@H](O)[C@H]1C(=O)N2C(C(=O)[O-])=C3[C@@H](OCCCO)CCC[C@@H]3[C@H]12.[Na+]`: the MIC is 1 µg/mL.
Molecule `C[C@@H](O)[C@H]1C(=O)N2C(C(=O)[O-])=C3[C@@H](OCCCN)CCC[C@@H]3[C@H]12.[Na+]` yielded an MIC of 0.5 µg/mL.
Turning to `C[C@@H](O)[C@H]1C(=O)N2C(C(=O)[O-])=C3[C@@H](OCCN=[N+]=[N-])CCC[C@@H]3[C@H]12.[Na+]`, the MIC worked out at 1 µg/mL.
The same measure, in the same setting: the result for `C[C@@H](O)[C@H]1C(=O)N2C(C(=O)[O-])=C3[C@@H](OCC/N=C/N)CCC[C@@H]3[C@H]12.[Na+]` reads 1 µg/mL; that for `C[C@@H](O)[C@H]1C(=O)N2C(C(=O)[O-])=C3[C@@H](OCCCN=[N+]=[N-])CCC[C@@H]3[C@H]12.[Na+]`, 1 µg/mL.
`C/C(N)=N\CCO[C@H]1CCC[C@H]2C1=C(C(=O)[O-])N1C(=O)[C@H]([C@@H](C)O)[C@@H]21.[Na+]` returned an MIC of 0.5 µg/mL.
Regarding `C[C@@H](O)[C@H]1C(=O)N2C(C(=O)[O-])=C3[C@@H](OCCN)CCC[C@@H]3[C@H]12.[Na+]`, the lowest concentration to inhibit growth (MIC) was 0.5 µg/mL.
Still for that read-out and setting: in the case of `C[C@@H](O)[C@H]1C(=O)N2C(C(=O)O)=C(SCCNC=N)C[C@H]12` [IMIPENEM ANHYDROUS] it was 0.5 µg/mL (≈ 1.67 µM).

In another experiment the test system is Pseudomonas aeruginosa. Put plainly: In vitro antibacterial activity against Pseudomonas aeruginosa 1911E strain and compared to imipenem. Format: functional.
`C[C@@H](O)[C@H]1C(=O)N2C(C(=O)[O-])=C3[C@@H](OCCCO)CCC[C@@H]3[C@H]12.[Na+]` came in with an MIC greater than 32 µg/mL.
As for `C[C@@H](O)[C@H]1C(=O)N2C(C(=O)[O-])=C3[C@@H](OCCCN)CCC[C@@H]3[C@H]12.[Na+]`, the MIC turned out to be 16 µg/mL.
The molecule `C[C@@H](O)[C@H]1C(=O)N2C(C(=O)[O-])=C3[C@@H](OCCN=[N+]=[N-])CCC[C@@H]3[C@H]12.[Na+]` registered an MIC greater than 32 µg/mL.
On the same count and under the same terms, in the case of `C[C@@H](O)[C@H]1C(=O)N2C(C(=O)[O-])=C3[C@@H](OCC/N=C/N)CCC[C@@H]3[C@H]12.[Na+]` it was 32 µg/mL; in that of `C[C@@H](O)[C@H]1C(=O)N2C(C(=O)[O-])=C3[C@@H](OCCCN=[N+]=[N-])CCC[C@@H]3[C@H]12.[Na+]`, greater than 32 µg/mL; in that of `C/C(N)=N\CCO[C@H]1CCC[C@H]2C1=C(C(=O)[O-])N1C(=O)[C@H]([C@@H](C)O)[C@@H]21.[Na+]`, 32 µg/mL.
`C[C@@H](O)[C@H]1C(=O)N2C(C(=O)[O-])=C3[C@@H](OCCN)CCC[C@@H]3[C@H]12.[Na+]`: the MIC is 8 µg/mL.
Consider `C[C@@H](O)[C@H]1C(=O)N2C(C(=O)O)=C(SCCNC=N)C[C@H]12` [IMIPENEM ANHYDROUS], for which the MIC came to 4 µg/mL (≈ 13.4 µM).

Another experiment concerns Staphylococcus aureus. The experiment in a line: In vitro antibacterial activity against Staphylococcus aureus 663E strain and compared to imipenem. Format: functional.
Regarding `C[C@@H](O)[C@H]1C(=O)N2C(C(=O)[O-])=C3[C@@H](OCCCO)CCC[C@@H]3[C@H]12.[Na+]`, the MIC was 0.2 µg/mL.
Still for that read-out and setting: the result for `C[C@@H](O)[C@H]1C(=O)N2C(C(=O)[O-])=C3[C@@H](OCCCN)CCC[C@@H]3[C@H]12.[Na+]` reads 0.2 µg/mL.
With `C[C@@H](O)[C@H]1C(=O)N2C(C(=O)[O-])=C3[C@@H](OCCN=[N+]=[N-])CCC[C@@H]3[C@H]12.[Na+]`, the MIC came to 0.25 µg/mL.
The same measure, in the same setting: the result for `C[C@@H](O)[C@H]1C(=O)N2C(C(=O)[O-])=C3[C@@H](OCC/N=C/N)CCC[C@@H]3[C@H]12.[Na+]` reads 0.25 µg/mL.
Consider `C[C@@H](O)[C@H]1C(=O)N2C(C(=O)[O-])=C3[C@@H](OCCCN=[N+]=[N-])CCC[C@@H]3[C@H]12.[Na+]`, for which it took 0.2 µg/mL to inhibit growth (MIC).
On the same count and under the same terms, in the case of `C/C(N)=N\CCO[C@H]1CCC[C@H]2C1=C(C(=O)[O-])N1C(=O)[C@H]([C@@H](C)O)[C@@H]21.[Na+]` it was 1 µg/mL; in that of `C[C@@H](O)[C@H]1C(=O)N2C(C(=O)[O-])=C3[C@@H](OCCN)CCC[C@@H]3[C@H]12.[Na+]`, 0.5 µg/mL; in that of `C[C@@H](O)[C@H]1C(=O)N2C(C(=O)O)=C(SCCNC=N)C[C@H]12` [IMIPENEM ANHYDROUS], 0.12 µg/mL (≈ 0.401 µM).

In the next experiment the test system is Staphylococcus aureus. Put plainly: In vitro antibacterial activity against Staphylococcus aureus 853E beta-lactamase producing strain and compared to imipenem,. Format: functional.
`C[C@@H](O)[C@H]1C(=O)N2C(C(=O)[O-])=C3[C@@H](OCCCO)CCC[C@@H]3[C@H]12.[Na+]` displayed an MIC of 0.5 µg/mL.
In turn, `C[C@@H](O)[C@H]1C(=O)N2C(C(=O)[O-])=C3[C@@H](OCCCN)CCC[C@@H]3[C@H]12.[Na+]` showed an MIC of 0.2 µg/mL.
Same read-out and setting: the result for `C[C@@H](O)[C@H]1C(=O)N2C(C(=O)[O-])=C3[C@@H](OCCN=[N+]=[N-])CCC[C@@H]3[C@H]12.[Na+]` reads 0.5 µg/mL; that for `C[C@@H](O)[C@H]1C(=O)N2C(C(=O)[O-])=C3[C@@H](OCC/N=C/N)CCC[C@@H]3[C@H]12.[Na+]`, 0.5 µg/mL.
On the same count and under the same terms, in the case of `C[C@@H](O)[C@H]1C(=O)N2C(C(=O)[O-])=C3[C@@H](OCCCN=[N+]=[N-])CCC[C@@H]3[C@H]12.[Na+]` it was 0.5 µg/mL.
The same measure, in the same setting: the result for `C/C(N)=N\CCO[C@H]1CCC[C@H]2C1=C(C(=O)[O-])N1C(=O)[C@H]([C@@H](C)O)[C@@H]21.[Na+]` reads 2 µg/mL; that for `C[C@@H](O)[C@H]1C(=O)N2C(C(=O)[O-])=C3[C@@H](OCCN)CCC[C@@H]3[C@H]12.[Na+]`, 0.5 µg/mL; that for `C[C@@H](O)[C@H]1C(=O)N2C(C(=O)O)=C(SCCNC=N)C[C@H]12` [IMIPENEM ANHYDROUS], 0.12 µg/mL (≈ 0.401 µM).

The next experiment relates to Clostridium perfringens. Put plainly: In vitro antibacterial activity against Clostridium perfringens 615E strain and compared to imipenem. Format: functional.
`C[C@@H](O)[C@H]1C(=O)N2C(C(=O)[O-])=C3[C@@H](OCCCO)CCC[C@@H]3[C@H]12.[Na+]` showed an MIC of 30 µg/mL.
The same measure, in the same setting: in the case of `C[C@@H](O)[C@H]1C(=O)N2C(C(=O)[O-])=C3[C@@H](OCCCN)CCC[C@@H]3[C@H]12.[Na+]` it was 60 µg/mL.
The molecule `C[C@@H](O)[C@H]1C(=O)N2C(C(=O)[O-])=C3[C@@H](OCCN=[N+]=[N-])CCC[C@@H]3[C@H]12.[Na+]` gave an MIC of 30 µg/mL.
In turn, `C[C@@H](O)[C@H]1C(=O)N2C(C(=O)[O-])=C3[C@@H](OCC/N=C/N)CCC[C@@H]3[C@H]12.[Na+]` came in with an MIC of 120 µg/mL.
With `C[C@@H](O)[C@H]1C(=O)N2C(C(=O)[O-])=C3[C@@H](OCCCN=[N+]=[N-])CCC[C@@H]3[C@H]12.[Na+]`, the MIC came to 60 µg/mL.
In the case of `C/C(N)=N\CCO[C@H]1CCC[C@H]2C1=C(C(=O)[O-])N1C(=O)[C@H]([C@@H](C)O)[C@@H]21.[Na+]`, the lowest concentration to inhibit growth (MIC) was 120 µg/mL.
`C[C@@H](O)[C@H]1C(=O)N2C(C(=O)[O-])=C3[C@@H](OCCN)CCC[C@@H]3[C@H]12.[Na+]` gave an MIC of 120 µg/mL.
Consider `C[C@@H](O)[C@H]1C(=O)N2C(C(=O)O)=C(SCCNC=N)C[C@H]12` [IMIPENEM ANHYDROUS], for which the MIC is 30 µg/mL (≈ 100 µM).

The next experiment deals with Enterococcus faecalis. Put plainly: In vitro antibacterial activity against […] 850 strain and compared to imipenem. The class given is functional.
As for `C[C@@H](O)[C@H]1C(=O)N2C(C(=O)[O-])=C3[C@@H](OCCCO)CCC[C@@H]3[C@H]12.[Na+]`, the MIC was 8 µg/mL.
`C[C@@H](O)[C@H]1C(=O)N2C(C(=O)[O-])=C3[C@@H](OCCCN)CCC[C@@H]3[C@H]12.[Na+]` displayed an MIC of 4 µg/mL.
Same read-out and setting: the result for `C[C@@H](O)[C@H]1C(=O)N2C(C(=O)[O-])=C3[C@@H](OCCN=[N+]=[N-])CCC[C@@H]3[C@H]12.[Na+]` reads 4 µg/mL; that for `C[C@@H](O)[C@H]1C(=O)N2C(C(=O)[O-])=C3[C@@H](OCC/N=C/N)CCC[C@@H]3[C@H]12.[Na+]`, 2 µg/mL.
The same measure, in the same setting: the result for `C[C@@H](O)[C@H]1C(=O)N2C(C(=O)[O-])=C3[C@@H](OCCCN=[N+]=[N-])CCC[C@@H]3[C@H]12.[Na+]` reads 8 µg/mL; that for `C/C(N)=N\CCO[C@H]1CCC[C@H]2C1=C(C(=O)[O-])N1C(=O)[C@H]([C@@H](C)O)[C@@H]21.[Na+]`, 16 µg/mL; that for `C[C@@H](O)[C@H]1C(=O)N2C(C(=O)[O-])=C3[C@@H](OCCN)CCC[C@@H]3[C@H]12.[Na+]`, 8 µg/mL.
Same read-out and setting: the result for `C[C@@H](O)[C@H]1C(=O)N2C(C(=O)O)=C(SCCNC=N)C[C@H]12` [IMIPENEM ANHYDROUS] reads 2 µg/mL (≈ 6.68 µM).
